Results on four compounds are retold here after ChEMBL document CHEMBL1159351, “New briaranes from the Taiwanese gorgonian Junceella juncea” (J Nat Prod, 2003).

Assay type in all cases: functional, cell-based
One assay has as its system HEPA 59T/VGH. Nature of the assay: (§1) Cytotoxicity against human HEPA 59T/VGH cells by methylene blue dye assay.
The subject of the next assay is KB16. Nature of the assay: (§2) Cytotoxicity against human KB16 cells by methylene blue dye assay.
Assay [1] can be described thus: as §1.
The nature of assay [2]: as §2.

Molecules are shown by their SMILES. In brackets after ≈: the same amount, converted by molar mass. Activity calls are given as the source filed them. The rule behind the calls is not given here.

On to `CC(=O)O[C@H]1C[C@]2(CO2)[C@H]2[C@](C)([C@H]1OC(C)=O)[C@]1(OC(C)=O)/C=C\C(CO)=C/[C@@H]3OC(=O)[C@H](C)[C@@]3(O)[C@]21OC(C)=O`, for which the result in the assay with HEPA 59T/VGH and with KB16 was inactive.
`CC(=O)O[C@H]1[C@@H](OC(C)=O)[C@]2(CO2)[C@H]2[C@](C)([C@H]1OC(C)=O)[C@]1(OC(C)=O)/C=C\C(CO)=C/[C@@H]3OC(=O)[C@H](C)[C@@]3(O)[C@]21OC(C)=O` [JUNCENOLIDE C]: the figures for the IC50 in assay [1] and in assay [2] were 6.6 µg/mL (≈ 10.4 µM) and 7.8 µg/mL (≈ 12.3 µM), respectively.
In the case of `C=C1/C=C/[C@H](OC(C)=O)[C@@]2(C)[C@@H](OC(C)=O)CC[C@]3(CO3)[C@@H]2[C@H](OC(C)=O)[C@]2(O)[C@@H](C)C(=O)O[C@H]2[C@H]1Cl`, the result in the assay on HEPA 59T/VGH and in the assay on KB16 was inactive.
With `COCC1=C/[C@@H]2OC(=O)[C@H](C)[C@@]2(O)[C@]2(OC(C)=O)[C@H]3[C@@]4(CO4)[C@H](OC(C)=O)[C@H](OC(C)=O)[C@H](OC(C)=O)[C@]3(C)[C@]2(OC(C)=O)/C=C\1`, the outcome in the assay on HEPA 59T/VGH and with KB16 was inactive.

As usually defined, the IC50 is the concentration that inhibits the measured activity by half.
